According to EP4755878A1, “PHOTOCHROMIC COMPOUND, PHENOL DERIVATIVE, CURABLE COMPOSITION, OPTICAL ARTICLE, LENS, AND EYEGLASS” (TOKUYAMA CORPORATION, priority 2023, dated 2025):

How the values were obtained:
[1] = Photochromic properties of photochromic laminate (plastic lens) made by coating method; assay type: physicochemical; details: for Color developing density at 23°C: absorbance difference after 240 seconds irradiation at 23°C; for Color developing density at 35°C: absorbance difference after 240 seconds irradiation at 35°C; for Maximum absorption wavelength: after color development, second absorption wavelength (lower line of pair)
From the text: First, the photochromic compound obtained in Example 1 above, a photoinitiator, and polymerizable compounds were mixed to obtain a curable composition.
As the polymerizable compounds, a blend of the following radically-polymerizable monomers in combination was used.
• Polyethylene glycol dimethacrylate (average molecular weight: 736): 42 parts by mass • Polyethylene glycol dimethacrylate (average molecular weight: 536): 12 parts by mass • Trimethylolpropane trimethacrylate: 38 parts by mass • γ-Methacryloyloxypropyltrimethoxysilane: 2 parts by mass • Glycidyl methacrylate: 1 part by mass.
Note that in the curable composition, the photochromic compound obtained in Example 1 above was added to be 0.25 mmol taking the total amount of the radically-polymerizable monomers as 100 g. The following were used as additives.
(stabilizer, Irganox 245): 1 part by mass Bis(1,2,2,6,6-pentamethyl-4-piperidyl) sebacate: 3 parts by mass Leveling agent from DuPont Toray Specialty Materials K.K. (L7001): 0.1 parts by mass.
Note that the above-mentioned additives are described with blending ratios taking a total of the radically-polymerizable monomers as 100 parts by mass.
Using this curable composition, a photochromic laminate was obtained by a lamination process described below with the polymerization described below being carried out.
First, a thiourethane plastic lens with a center thickness of 2 mm and a refractive index of 1.60 was prepared as an optical substrate. Note that the thiourethane plastic lens had been alkaline-etched beforehand in a 10% aqueous sodium hydroxide solution at 50°C for 5 minutes, and then thoroughly washed with distilled water.
A spin coater (1H-DX2, manufactured by MIKASA CO., LTD) was used to coat a surface of the above-mentioned plastic lens with a moisture-curable primer (product name: TR-SC-P, manufactured by Tokuyama Corporation) at a rotation speed of 70 rpm for 15 seconds, followed by at 1000 rpm for 10 seconds. Then, about 2 g of the photochromic curable composition obtained as above was spin-coated at a rotation speed of 60 rpm for 40 seconds, followed by at 600 rpm for 10 to 20 seconds so as to achieve a photochromic coating layer with a film thickness of 40 µm.
The lens having the surface coated with the photochromic curable composition (photochromic coating layer) was irradiated with light for 90 seconds in a nitrogen gas atmosphere using a metal halide lamp with an output of 200 mW/cm^2 to cure the coating film. The coating was then further heated at 110°C for 1 hour to produce a photochromic laminate with a photochromic layer.
Photochromic laminates were produced using the photochromic compounds obtained in Examples 2 to 19 in the same manner as in Example 20.
Photochromic laminates were obtained in the same manner as in Example 20 using photochromic compounds represented by the following formulas (A) to (F). [drawing 143] [drawing 144] [drawing 145] [drawing 146] [drawing 147] [drawing 148] [drawing 149] [drawing 150]
The resulting photochromic laminates were evaluated by the methods described below.
Table 3 summarizes the results of Examples 20, 32, and 34, and Comparative Examples 1 to 6, and Table 4 summarizes the results of Examples 21 to 31, 33, and 35 to 38. The relationship between the fading half-life at 23°C and the color development ratio at the higher temperature of the photochromic laminates according to Examples and Comparative Examples are shown in a graph in FIG. 1.
Photochromic laminates were formed using the photochromic compound obtained in Examples 61 to 71 in the same manner as in Example 20.

[2] = Photochromic properties of photochromic cured product made by kneading method; assay type: physicochemical; details: for Maximum absorption wavelength: 1 mm, after color development, second absorption wavelength (lower line of pair); for Color developing density at 23°C: absorbance difference after 240 seconds irradiation at 23°C; for Color developing density at 35°C: absorbance difference after 240 seconds irradiation at 35°C
From the text: First, the photochromic compound obtained in Example 1, additives, and polymerizable compounds were mixed to obtain a curable composition. As the polymerizable compounds, a blend of the following polymerizable monomers in combination was used. • 1,3-Bis(isocyanatomethyl)cyclohexane: 36.7 parts by mass Pentaerythritol tetrakis(3-mercaptopropionate): 39.4 parts by mass • Polyoxyethylene polyoxypropylene lauryl ether (WONDERSURF 140 from Aoki Oil Industrial Co., Ltd.): 17.4 parts by mass 1-Decanethiol: 2.8 parts by mass • RX-1 prepared according to the method described in Patent Document 12: 3.8 parts by mass Note that in the curable composition, the photochromic compound was added to be 0.106 mmol taking the total amount of the polymerizable monomers as 100 g.
The following additives were used. Dimethyltin dichloride: 0.05 parts by mass • Irganox 245 from BASF Japan Ltd.: 0.1 parts by mass • 2-Ethylhexyl 4-methoxycinnamate: 0.6 parts by mass
The prepared curable composition was sufficiently degassed, and then injected into a glass mold provided with a gap of 1 mm, and the curable composition was polymerized via casting polymerization. […] After the polymerization, the cured product was removed from the glass mold, to obtain photochromic cured product having a thickness of 1 mm. The resulting photochromic cured product was evaluated in the same manner as in Example 23.
(Examples 51 to 60, and Comparative Examples 11 to 14) Photochromic cured products were formed using the photochromic compound shown in Table 6 in the same manner as in Example 50.

[3] = Photochromic properties of photochromic layer (binder sheet) made by binder method; details: for Color developing density at 23°C: absorbance difference after 240 seconds irradiation at 23°C; for Color developing density at 35°C: absorbance difference after 240 seconds irradiation at 35°C; for Maximum absorption wavelength: after color development, second absorption wavelength (lower line of pair)
Procedure: This is the maximum absorption wavelength after color development determined by a spectrophotometer manufactured by Otsuka Electronics Co., Ltd. (instantaneous multichannel photo detector MCPD3000) and was used as an index of a color tone upon color development.
This is a difference between an absorbance {ε(240)} after irradiation with light at the above-mentioned maximum absorption wavelength at 23°C for 240 seconds and an absorbance ε(0) when not irradiated with light, and was used as an index of a color developing density. The higher this value is, the better photochromic property is.
This is a difference between an absorbance {ε(240)} after irradiation with light at first and second absorption wavelengths at 35°C for 240 seconds and an absorbance ε(0) when not irradiated with light, and was used as an index of a color developing density. The higher this value is, the better photochromic property is.
Color developing density at 35°C (A35) /color developing density at 23°C (A23) × 100(%). The higher this value is, the smaller the difference in color developing density between the higher temperature and the lower temperature is, and the smaller the temperature dependence is.
This is the period of time required for the absorbance at a maximum absorption wavelength of a sample to decrease to 1/2 of {ε(240)-ε(0)}, when light irradiation is stopped after the sample had been irradiated with light at 23°C for 240 seconds, and was used as an index of a color fading rate. The shorter this period of time is, the higher the color fading rate is.
A binder sheet was made according to the following method. […] As the first and second optical sheets, polycarbonate sheets with a thickness of 400 µm were used.
Note that the photochromic compound was added to be 0.25 mmol relative to 100 parts by mass of the terminally non-reactive urethaneurea resin.

Structure (SMILES)	Color developing density at 23°C ([1]; first absorption wavelength)	Color developing density at 23°C ([1]; second absorption wavelength)	Color developing density at 35°C ([1]; first absorption wavelength)	Color developing density at 35°C ([1]; second absorption wavelength)	Maximum absorption wavelength [1] [nm]	Maximum absorption wavelength [2] [nm]	Color developing density at 23°C ([2]; first absorption wavelength)	Color developing density at 23°C ([2]; second absorption wavelength)	Color developing density at 35°C ([2]; first absorption wavelength)	Color developing density at 35°C ([2]; second absorption wavelength)	Color developing density at 23°C ([3]; first absorption wavelength)	Color developing density at 23°C ([3]; second absorption wavelength)	Color developing density at 35°C ([3]; first absorption wavelength)	Color developing density at 35°C ([3]; second absorption wavelength)	Maximum absorption wavelength [3] [nm]
COc1ccc(C2(c3ccc(OC)cc3)C=Cc3c4c(c5ccc(OC)cc5c3O2)-c2ccc(N(C)c3ccccc3)cc2C4(C)C)cc1 [Formula (1-7)]	0.86 -	1.06 -	0.64 -	0.81 -	616	621	0.89 -	1.09 -	0.67 -	0.84 -	0.88 -	1.08 -	0.63 -	0.80 -	613
COc1ccc(C2(c3ccc(OC)cc3)C=Cc3c4c(c5ccc(OC)cc5c3O2)-c2ccc(N(c3ccccc3)c3ccccc3)cc2C4(C)C)cc1 [Formula (15-2)]	0.92 -	1.07 -	0.67 -	0.79 -	619	622	0.95 -	1.10 -	0.70 -	0.83 -	0.93 -	1.08 -	0.67 -	078 -	616
COc1ccc(C2(c3ccc(OC)cc3)C=Cc3c4c(c5ccc(OC)cc5c3O2)-c2ccc(N3CCOc5ccccc53)cc2C4(C)C)cc1 [Formula (13-2)]	0.87 -	1.02 -	0.63 -	0.75 -	608	616	0.90 -	1.04 -	0.66 -	0.78 -	0.90 -	1.04 -	0.63 -	0.74 -	608
COc1ccc(C2(c3ccc(OC)cc3)C=Cc3c4c(c5ccc(OC)cc5c3O2)-c2ccccc2C4(C)C)cc1 [Formula (A), reference compound]	0.69 -	0.87 -	0.44 -	0.55 -	569	578	0.72 -	0.91 -	0.48 -	0.61 -	0.71 -	0.90 -	0.46 -	0.58 -	569
COc1ccc(C2(c3ccc(OC)cc3)C=Cc3c4c(c5ccc(Oc6ccccc6)cc5c3O2)-c2ccc(N(c3ccccc3)c3ccccc3)cc2C4(CCCCF)CCCCF)cc1 [Formula (8-2)]	0.75 -	0.99 -	0.52 -	0.69 -	610	618	0.78 -	1.02 -	0.55 -	0.70 -	0.77 -	1.01 -	0.51 -	0.69 -	609

Second part, the compound after the results:

Color developing density at 23°C ([1]; first absorption wavelength)	Color developing density at 23°C ([1]; second absorption wavelength)	Color developing density at 35°C ([1]; first absorption wavelength)	Color developing density at 35°C ([1]; second absorption wavelength)	Maximum absorption wavelength [1] [nm]	Maximum absorption wavelength [2] [nm]	Color developing density at 23°C ([2]; first absorption wavelength)	Color developing density at 23°C ([2]; second absorption wavelength)	Color developing density at 35°C ([2]; first absorption wavelength)	Color developing density at 35°C ([2]; second absorption wavelength)	Color developing density at 23°C ([3]; first absorption wavelength)	Color developing density at 23°C ([3]; second absorption wavelength)	Color developing density at 35°C ([3]; first absorption wavelength)	Color developing density at 35°C ([3]; second absorption wavelength)	Maximum absorption wavelength [3] [nm]	Structure (SMILES)
0.86 -	1.49 -	0.64 -	1.11 -	624	632	0.88 -	1.52 -	0.67 -	1.15 -	0.87 -	1.51 -	0.61 -	1.08 -	625	CCCCC1(CCCC)c2cc(N(CC)c3ccccc3)ccc2-c2c1c1c(c3cc(C)c(-c4ccc(OC)cc4)cc23)OC(c2ccc(C)cc2)(c2ccc(N(C)c3ccccc3)cc2)C=C1 (centres unmarked) [Formula (12-5)]
0.53 -	0.89 -	0.36 -	0.61 -	593	599	0.56 -	0.92 -	0.38 -	0.65 -	0.55 -	0.90 -	0.37 -	0.61 -	595	COCC1(COC)c2cc(N(C)c3ccccc3)ccc2-c2c1c1c(c3ccccc23)OC(c2ccc(OC)cc2)(c2ccc(OC)c(F)c2)C=C1 (centres unmarked) [Formula (16-3)]
0.71 -	1.04 -	0.48 -	0.74 -	593	600	0.74 -	1.07 -	0.54 -	0.81 -	0.73 -	1.06 -	0.51 -	0.75 -	594	COc1ccc(C2(c3ccc(OC)cc3)C=Cc3c4c(c5ccc(OC)cc5c3O2)-c2ccc(OC)cc2C4(C)C)cc1 [Formula (C), reference compound]
0.73 -	1.13 -	0.51 -	0.80 -	628											COc1ccc2c3c(c4c(c2c1)OC(c1ccc(F)cc1)(c1ccc(N2CCOCC2)cc1)C=C4)C(CCC(F)(F)F)(CCC(F)(F)F)c1cc(N(C)c2ccc(C)cc2)ccc1-3 (centres unmarked) [Formula (14-3)]
